Reference: patent US20260272934A1 (The United States of America, as represented by the …, priority 2023, published 2026)

What was measured:
[1] = Conversion of Allopole to Allopole-A under various buffer conditions (mass spectroscopy); assay type: physicochemical; settings: RT, 1 h; for Compound detected / Compound detected, % of total / Compound detected, pk area: 100 uM Allopole incubated
Experimental: This Example illustrates the conversion of Allopole to Allopole-A under various buffer conditions, RT, 1 h (JE), as set forth in Table 4
Samples were prepared by incubating Allopole in the indicated buffer conditions without or with 5 mM GSH for 1 h, at RT.

5-HT1A = 5-HT1A (Homo sapiens, UniProt P08908); assay: Off-target primary and secondary screen; assay type: binding; settings: 10 mM sample
5-HT1D = 5-HT1D (Homo sapiens, UniProt P28221); assay: Off-target primary and secondary screen; assay type: binding; settings: 10 mM sample
5-HT1E = 5-HT1E (Homo sapiens, UniProt P28566); assay: Off-target primary and secondary screen; assay type: binding; settings: 10 mM sample
5-HT2A = 5-HT2A (Homo sapiens, UniProt P28223); assay: Off-target primary and secondary screen; assay type: binding; settings: for Primary screen AVE (% inhib) ± SD: 10 mM sample
5-HT2B = 5-HT2B (Homo sapiens, UniProt P41595); assay: Off-target primary and secondary screen; assay type: binding; settings: 10 mM sample
5-HT3 = 5-HT3 (Homo sapiens, UniProt P46098); assay: Off-target primary and secondary screen; assay type: binding; settings: 10 mM sample
5-HT6 = 5-HT6 (Homo sapiens, UniProt P50406); assay: Off-target primary and secondary screen; assay type: binding; settings: 10 mM sample
Alpha1A = Alpha1A (Homo sapiens, UniProt P35348); assay: Off-target primary and secondary screen; assay type: binding; settings: 10 mM sample
Aipha1D = Aipha1D (Homo sapiens, UniProt P25100); assay: Off-target primary and secondary screen; assay type: binding; settings: 10 mM sample
Alpha2A = Alpha2A (Homo sapiens, UniProt P08913); assay: Off-target primary and secondary screen; assay type: binding; settings: 10 mM sample
Alpha2C = Alpha2C (Homo sapiens, UniProt P18825); assay: Off-target primary and secondary screen; assay type: binding; settings: 10 mM sample
Beta1 = Beta1 (Homo sapiens, UniProt P08588); assay: Off-target primary and secondary screen; assay type: binding; settings: 10 mM sample
Beta2 = Beta2 (Homo sapiens, UniProt P07550); assay: Off-target primary and secondary screen; assay type: binding; settings: 10 mM sample
Beta3 = Beta3 (Homo sapiens, UniProt P13945); assay: Off-target primary and secondary screen; assay type: binding; settings: 10 mM sample
D3 = D3 (Homo sapiens, UniProt P35462); assay: Off-target primary and secondary screen; assay type: binding; settings: 10 mM sample
D4 = D4 (Homo sapiens, UniProt P21917); assay: Off-target primary and secondary screen; assay type: binding; settings: 10 mM sample
D5 = D5 (Homo sapiens, UniProt P21918); assay: Off-target primary and secondary screen; assay type: binding; settings: 10 mM sample
DOR = DOR (Homo sapiens, UniProt P41143); assay: Off-target primary and secondary screen; assay type: binding; settings: 10 mM sample
H1 = H1 (Homo sapiens, UniProt P35367); assay: Off-target primary and secondary screen; assay type: binding; settings: 10 mM sample
H3 = H3 (Homo sapiens, UniProt Q9Y5N1); assay: Off-target primary and secondary screen; assay type: binding; settings: 10 mM sample
H4 = H4 (Homo sapiens, UniProt Q9H3N8); assay: Off-target primary and secondary screen; assay type: binding; settings: 10 mM sample
KOR = KOR (Homo sapiens, UniProt P41145); assay: Off-target primary and secondary screen; assay type: binding; settings: 10 mM sample
M1 = M1 (Homo sapiens, UniProt P11229); assay: Off-target primary and secondary screen; assay type: binding; settings: 10 mM sample
M2 = M2 (Homo sapiens, UniProt P08172); assay: Off-target primary and secondary screen; assay type: binding; settings: 10 mM sample
M4 = M4 (Homo sapiens, UniProt P08173); assay: Off-target primary and secondary screen; assay type: binding; settings: 10 mM sample
M5 = M5 (Homo sapiens, UniProt P08912); assay: Off-target primary and secondary screen; assay type: binding; settings: 10 mM sample
MOR = MOR (Homo sapiens, UniProt P35372); assay: Off-target primary and secondary screen; assay type: binding; settings: 10 mM sample
NET = NET (Homo sapiens, UniProt P23975); assay: Off-target primary and secondary screen; assay type: binding; settings: 10 mM sample
PBR = PBR (Homo sapiens, UniProt P30536); assay: Off-target primary and secondary screen; assay type: binding; settings: for Primary screen AVE (% inhib) ± SD: 10 mM sample
Sigma 1 = Sigma 1 (Homo sapiens, UniProt Q99720); assay: Off-target primary and secondary screen; assay type: binding; settings: 10 mM sample
Sigma 2 = Sigma 2 (Homo sapiens, UniProt Q5BJF2); assay: Off-target primary and secondary screen; assay type: binding; settings: 10 mM sample
[2] = buffer 2 (1x PBS pH = 7.4), no GSH
[3] = buffer 3 (20 mM HEPES pH = 7.0), no GSH

Chain of 5-HT2A (P28223 whole entry, species assumed): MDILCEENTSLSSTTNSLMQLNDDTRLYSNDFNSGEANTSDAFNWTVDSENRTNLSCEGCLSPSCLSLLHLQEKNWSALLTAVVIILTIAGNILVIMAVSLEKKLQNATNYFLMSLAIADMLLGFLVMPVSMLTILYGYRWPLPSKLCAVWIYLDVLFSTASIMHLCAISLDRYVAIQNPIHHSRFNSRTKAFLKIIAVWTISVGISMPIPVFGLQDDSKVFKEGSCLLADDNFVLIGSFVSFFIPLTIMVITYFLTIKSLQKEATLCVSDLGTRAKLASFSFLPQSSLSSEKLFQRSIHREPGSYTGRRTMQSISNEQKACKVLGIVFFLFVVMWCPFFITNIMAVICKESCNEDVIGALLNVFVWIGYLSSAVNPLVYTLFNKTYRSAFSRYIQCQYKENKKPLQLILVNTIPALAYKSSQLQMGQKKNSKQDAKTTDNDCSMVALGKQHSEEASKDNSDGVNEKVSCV
Chain of PBR (P30536 whole entry, species assumed): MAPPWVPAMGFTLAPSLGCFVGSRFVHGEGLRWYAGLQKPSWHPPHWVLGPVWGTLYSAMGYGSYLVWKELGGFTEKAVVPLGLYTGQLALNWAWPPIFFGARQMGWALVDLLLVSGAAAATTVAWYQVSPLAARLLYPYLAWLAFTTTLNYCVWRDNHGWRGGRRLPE
Chain of 5-HT2B (P41595 whole entry, species assumed): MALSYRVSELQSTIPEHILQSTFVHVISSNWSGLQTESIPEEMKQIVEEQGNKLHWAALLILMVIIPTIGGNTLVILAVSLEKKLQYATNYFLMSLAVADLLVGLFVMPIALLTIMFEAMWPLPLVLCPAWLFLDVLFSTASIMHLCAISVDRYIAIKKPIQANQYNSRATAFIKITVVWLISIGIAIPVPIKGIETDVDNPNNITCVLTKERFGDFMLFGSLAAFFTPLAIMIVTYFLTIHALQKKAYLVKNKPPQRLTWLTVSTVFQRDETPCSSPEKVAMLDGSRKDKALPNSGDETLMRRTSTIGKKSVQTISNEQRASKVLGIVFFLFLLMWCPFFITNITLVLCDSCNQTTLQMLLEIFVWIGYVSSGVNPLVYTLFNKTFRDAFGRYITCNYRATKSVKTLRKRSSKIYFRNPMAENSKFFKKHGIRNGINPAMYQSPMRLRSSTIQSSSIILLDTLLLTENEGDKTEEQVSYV
Chain of H3 (Q9Y5N1 whole entry): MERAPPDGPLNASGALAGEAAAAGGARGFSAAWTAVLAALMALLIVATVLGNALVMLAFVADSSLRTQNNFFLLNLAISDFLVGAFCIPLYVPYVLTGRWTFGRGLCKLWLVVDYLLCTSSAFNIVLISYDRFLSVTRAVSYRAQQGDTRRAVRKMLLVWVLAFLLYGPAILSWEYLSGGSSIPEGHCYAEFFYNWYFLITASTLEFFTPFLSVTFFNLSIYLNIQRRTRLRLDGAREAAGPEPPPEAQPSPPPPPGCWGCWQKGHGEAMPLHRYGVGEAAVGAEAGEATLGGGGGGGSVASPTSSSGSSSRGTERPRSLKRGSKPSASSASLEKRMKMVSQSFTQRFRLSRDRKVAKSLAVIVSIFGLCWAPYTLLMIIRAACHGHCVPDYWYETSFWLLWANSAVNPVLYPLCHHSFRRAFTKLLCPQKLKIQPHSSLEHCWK
Chain of M2 (P08172 whole entry): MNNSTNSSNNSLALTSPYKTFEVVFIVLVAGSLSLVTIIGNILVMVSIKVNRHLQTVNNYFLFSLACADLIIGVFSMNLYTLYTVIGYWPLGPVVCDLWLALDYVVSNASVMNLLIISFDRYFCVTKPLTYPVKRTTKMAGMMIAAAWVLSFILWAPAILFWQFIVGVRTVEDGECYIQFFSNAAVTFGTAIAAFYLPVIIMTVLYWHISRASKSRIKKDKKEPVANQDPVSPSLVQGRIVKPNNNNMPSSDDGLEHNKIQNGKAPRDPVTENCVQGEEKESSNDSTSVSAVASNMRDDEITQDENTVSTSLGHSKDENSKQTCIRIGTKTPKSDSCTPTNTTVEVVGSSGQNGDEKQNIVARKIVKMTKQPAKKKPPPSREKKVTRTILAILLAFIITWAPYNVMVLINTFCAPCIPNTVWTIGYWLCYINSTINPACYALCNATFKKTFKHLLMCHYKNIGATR
Chain of 5-HT3 (P46098 24-478, species assumed): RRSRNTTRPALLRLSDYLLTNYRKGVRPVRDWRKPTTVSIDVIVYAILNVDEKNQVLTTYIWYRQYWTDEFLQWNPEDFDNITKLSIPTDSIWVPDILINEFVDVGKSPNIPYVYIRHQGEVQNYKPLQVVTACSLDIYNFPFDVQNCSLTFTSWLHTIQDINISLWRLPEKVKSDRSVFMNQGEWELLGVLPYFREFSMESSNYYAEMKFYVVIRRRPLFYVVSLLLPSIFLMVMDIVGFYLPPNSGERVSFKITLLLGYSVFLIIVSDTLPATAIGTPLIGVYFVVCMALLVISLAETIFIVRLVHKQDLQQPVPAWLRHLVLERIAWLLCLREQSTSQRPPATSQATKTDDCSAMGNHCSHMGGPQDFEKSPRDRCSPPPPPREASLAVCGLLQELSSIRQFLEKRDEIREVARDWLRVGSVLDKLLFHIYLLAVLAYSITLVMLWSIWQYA
Chain of Sigma 2 (Q5BJF2 whole entry): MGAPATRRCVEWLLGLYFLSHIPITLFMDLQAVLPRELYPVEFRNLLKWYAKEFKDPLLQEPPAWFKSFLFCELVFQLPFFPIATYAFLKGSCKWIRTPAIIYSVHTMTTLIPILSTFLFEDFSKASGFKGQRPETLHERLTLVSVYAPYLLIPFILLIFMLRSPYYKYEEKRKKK
Chain of Sigma 1 (Q99720 whole entry): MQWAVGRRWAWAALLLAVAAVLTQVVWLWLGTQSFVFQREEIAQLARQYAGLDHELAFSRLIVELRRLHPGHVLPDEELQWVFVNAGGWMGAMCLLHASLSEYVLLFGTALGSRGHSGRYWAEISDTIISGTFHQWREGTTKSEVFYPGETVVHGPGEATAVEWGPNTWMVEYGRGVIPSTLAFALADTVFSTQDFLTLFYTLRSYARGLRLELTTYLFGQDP
Chain of H1 (P35367 whole entry): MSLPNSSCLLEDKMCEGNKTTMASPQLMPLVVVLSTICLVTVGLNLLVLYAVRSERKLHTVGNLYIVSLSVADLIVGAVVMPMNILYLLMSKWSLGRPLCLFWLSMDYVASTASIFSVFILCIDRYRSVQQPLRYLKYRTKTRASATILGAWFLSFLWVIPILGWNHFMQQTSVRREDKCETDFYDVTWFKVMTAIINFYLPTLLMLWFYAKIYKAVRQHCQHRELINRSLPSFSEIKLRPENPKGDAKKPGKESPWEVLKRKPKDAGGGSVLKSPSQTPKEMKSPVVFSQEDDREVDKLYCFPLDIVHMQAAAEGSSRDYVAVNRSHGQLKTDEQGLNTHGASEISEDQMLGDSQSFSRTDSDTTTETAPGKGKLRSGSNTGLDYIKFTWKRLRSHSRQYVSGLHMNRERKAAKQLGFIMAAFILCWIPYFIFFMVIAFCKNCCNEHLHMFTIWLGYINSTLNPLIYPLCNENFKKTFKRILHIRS
Chain of D5 (P21918 whole entry): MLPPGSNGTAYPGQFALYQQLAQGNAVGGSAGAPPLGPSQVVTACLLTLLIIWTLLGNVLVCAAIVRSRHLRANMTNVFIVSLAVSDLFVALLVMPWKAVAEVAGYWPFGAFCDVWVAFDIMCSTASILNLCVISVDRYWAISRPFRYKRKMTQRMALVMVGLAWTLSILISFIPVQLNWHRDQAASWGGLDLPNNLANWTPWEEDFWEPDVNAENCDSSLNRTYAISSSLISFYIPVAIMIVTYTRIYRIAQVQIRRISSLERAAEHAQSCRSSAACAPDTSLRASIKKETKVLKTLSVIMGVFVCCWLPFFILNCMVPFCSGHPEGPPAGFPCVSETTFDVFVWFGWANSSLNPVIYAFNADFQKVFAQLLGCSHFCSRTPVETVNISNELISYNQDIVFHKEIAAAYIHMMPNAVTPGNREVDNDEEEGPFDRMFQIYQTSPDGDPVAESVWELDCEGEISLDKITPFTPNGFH
Chain of H4 (Q9H3N8 whole entry): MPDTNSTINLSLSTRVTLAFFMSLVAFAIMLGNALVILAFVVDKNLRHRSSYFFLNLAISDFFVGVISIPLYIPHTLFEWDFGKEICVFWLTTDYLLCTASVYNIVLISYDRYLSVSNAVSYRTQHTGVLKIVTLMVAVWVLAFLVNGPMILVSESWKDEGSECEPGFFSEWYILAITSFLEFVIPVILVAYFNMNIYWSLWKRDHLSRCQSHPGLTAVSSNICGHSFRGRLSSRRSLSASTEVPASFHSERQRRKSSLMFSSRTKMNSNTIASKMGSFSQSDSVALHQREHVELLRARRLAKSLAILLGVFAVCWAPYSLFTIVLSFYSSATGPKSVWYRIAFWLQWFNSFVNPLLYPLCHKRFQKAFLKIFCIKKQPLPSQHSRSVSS
Chain of DOR (P41143 whole entry): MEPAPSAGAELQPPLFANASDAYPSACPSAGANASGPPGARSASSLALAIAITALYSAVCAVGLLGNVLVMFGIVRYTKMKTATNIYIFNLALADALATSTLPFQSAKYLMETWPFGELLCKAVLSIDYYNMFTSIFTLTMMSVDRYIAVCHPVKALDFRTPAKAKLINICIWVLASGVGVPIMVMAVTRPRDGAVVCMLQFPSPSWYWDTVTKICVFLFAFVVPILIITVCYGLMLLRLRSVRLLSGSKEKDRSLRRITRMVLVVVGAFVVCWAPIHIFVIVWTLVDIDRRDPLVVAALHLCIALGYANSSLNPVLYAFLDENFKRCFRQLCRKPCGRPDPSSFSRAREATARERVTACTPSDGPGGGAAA

Compound: O=c1c2sc(Cl)cc2n2c(=S)[nH]nc2n1CC1CC1 [Compound 19, 7-Chloro-4-(cyclopropylmethyl)-1-thioxo-2,4-dihydrothieno[2,3-e][1,2,4]triazolo[4,3-a]pyrimidin-5 (1H)-one]
- Compound detected ([1]; buffer 1 + 5 mM GSH): 95.4 µmol/L
- Compound detected, % of total ([1]; buffer 1 + 5 mM GSH): 95.4 % of total
- Compound detected, pk area ([1]; buffer 1 + 5 mM GSH): 1.38E+09
- Compound detected [1, 2]: 0.8 µmol/L
- Compound detected, % of total [1, 2]: 0.8 % of total
- Compound detected, pk area [1, 2]: 4.90E+06
- Compound detected ([1]; buffer 2 + 5 mM GSH): 77.9 µmol/L
- Compound detected, % of total ([1]; buffer 2 + 5 mM GSH): 77.9 % of total
- Compound detected, pk area ([1]; buffer 2 + 5 mM GSH): 5.81E+08
- Compound detected [1, 3]: 1.9 µmol/L
- Compound detected, % of total [1, 3]: 1.9 % of total
- Compound detected, pk area [1, 3]: 1.56E+06
- Compound detected ([1]; buffer 3 + 5 mM GSN): 66.9 µmol/L
- Compound detected, % of total ([1]; buffer 3 + 5 mM GSN): 66.9 % of total
- Compound detected, pk area ([1]; buffer 3 + 5 mM GSN): 1.89E+08
- Compound detected ([1]; buffer 3 [sic], no GSH): 1.3 µmol/L
- Compound detected, % of total ([1]; buffer 3 [sic], no GSH): 1.3 % of total
- Compound detected, pk area ([1]; buffer 3 [sic], no GSH): 9.61E+08
- Primary screen AVE (% inhib) ± SD (5-HT1A): -20.0 ± 27.4 % inhib
- Primary screen AVE (% inhib) ± SD (5-HT1D): 22.5 ± 25.6 % inhib
- Primary screen AVE (% inhib) ± SD (5-HT1E): 31.3 ± 7.6 % inhib
- Primary screen AVE (% inhib) ± SD (5-HT2A): 37.0 ± 10.4 % inhib
- Primary screen AVE (% inhib) ± SD (5-HT2B): -17.7 ± 11.2 % inhib
- Primary screen AVE (% inhib) ± SD (5-HT3): -3.8 ± 3.1 % inhib
- Primary screen AVE (% inhib) ± SD (5-HT6): -5.0 ± 11.7 % inhib
- Primary screen AVE (% inhib) ± SD (Alpha1A): -9.4 ± 18.0 % inhib
- Primary screen AVE (% inhib) ± SD (Aipha1D): -9.9 ± 23.4 % inhib
- Primary screen AVE (% inhib) ± SD (Alpha2A): -6.3 ± 7.9 % inhib
- Primary screen AVE (% inhib) ± SD (Alpha2C): 10.6 ± 4.2 % inhib
- Primary screen AVE (% inhib) ± SD (Beta1): -6.2 ± 19.4 % inhib
- Primary screen AVE (% inhib) ± SD (Beta2): -2.1 ± 19.7 % inhib
- Primary screen AVE (% inhib) ± SD (Beta3): 17.9 ± 8.6 % inhib
- Primary screen AVE (% inhib) ± SD (D3): -7.0 ± 21.7 % inhib
- Primary screen AVE (% inhib) ± SD (D4): -24.3 ± 4.4 % inhib
- Primary screen AVE (% inhib) ± SD (D5): 28.7 ± 10.7 % inhib
- Primary screen AVE (% inhib) ± SD (DOR): -13.5 ± 6.8 % inhib
- Primary screen AVE (% inhib) ± SD (H1): 11.5 ± 2.8 % inhib
- Primary screen AVE (% inhib) ± SD (H3): -18.5 ± 3.8 % inhib
- Primary screen AVE (% inhib) ± SD (H4): -4.5 ± 11.4 % inhib
- Primary screen AVE (% inhib) ± SD (KOR): -0.3 ± 8.7 % inhib
- Primary screen AVE (% inhib) ± SD (M1): 39.3 ± 10.7 % inhib
- Primary screen AVE (% inhib) ± SD (M2): 21.1 ± 19.7 % inhib
- Primary screen AVE (% inhib) ± SD (M4): -8.8 ± 4.8 % inhib
- Primary screen AVE (% inhib) ± SD (M5): 130.2 ± 3.0 % inhib
- Primary screen AVE (% inhib) ± SD (MOR): 30.8 ± 47.5 % inhib
- Primary screen AVE (% inhib) ± SD (NET): -39.3 ± 20.6 % inhib
- Ki (PBR): > 10 µM
- Primary screen AVE (% inhib) ± SD (PBR): 5.3 ± 8.3 % inhib
- Primary screen AVE (% inhib) ± SD (Sigma 1): 2.0 ± 21.4 % inhib
- Primary screen AVE (% inhib) ± SD (Sigma 2): 40.6 ± 9.5 % inhib

Compound: Cn1cnc([N+](=O)[O-])c1Sc1nnc2n(CC3CC3)c(=O)c3sc(Cl)cc3n12 [Compound 20, 7-Chloro-4-(cyclopropylmethyl)-1-((1-methyl-4-nitro-1H-imidazol-5-yl)thio) thieno[2,3-e][1,2,4]triazolo[4,3-a]pyrimidin-5 (4H)-one]
- Compound detected ([1]; buffer 1 + 5 mM GSH): 0.1 µmol/L
- Compound detected, % of total ([1]; buffer 1 + 5 mM GSH): 0.1 % of total
- Compound detected, pk area ([1]; buffer 1 + 5 mM GSH): 8.76E+08
- Compound detected [1, 2]: 97.6 µmol/L
- Compound detected, % of total [1, 2]: 97.6 % of total
- Compound detected, pk area [1, 2]: 6.28E+08
- Compound detected ([1]; buffer 2 + 5 mM GSH): 0.0 µmol/L
- Compound detected, % of total ([1]; buffer 2 + 5 mM GSH): 0.0 % of total
- Compound detected, pk area ([1]; buffer 2 + 5 mM GSH): 2.41E+03
- Compound detected [1, 3]: 93.1 µmol/L
- Compound detected, % of total [1, 3]: 93.1 % of total
- Compound detected ([1]; buffer 3 + 5 mM GSN): 0.0 µmol/L
- Compound detected, % of total ([1]; buffer 3 + 5 mM GSN): 0.0 % of total
- Compound detected, pk area ([1]; buffer 3 + 5 mM GSN): 93500
- Compound detected ([1]; buffer 3 [sic], no GSH): 97.9 µmol/L
- Compound detected, % of total ([1]; buffer 3 [sic], no GSH): 97.9 % of total
- Compound detected, pk area ([1]; buffer 3 [sic], no GSH): 7.45E+08
- stability in buffer ([1]; in the absence of GSH): remains stable
- conversion of the prodrug to the active Allopole-A form ([1]; with 5 mM GSH): rapid conversion
- Primary screen AVE (% inhib) ± SD (5-HT1A): -12.8 ± 19.7 % inhib
- Primary screen AVE (% inhib) ± SD (5-HT1D): 32.8 ± 27.1 % inhib
- Primary screen AVE (% inhib) ± SD (5-HT1E): 22.2 ± 10.5 % inhib
- Ki (5-HT2A): 9.2 µM
- Primary screen AVE (% inhib) ± SD (5-HT2A): 52.4 ± 11.8 % inhib
- Primary screen AVE (% inhib) ± SD (5-HT2B): -0.5 ± 5.0 % inhib
- Primary screen AVE (% inhib) ± SD (5-HT3): -0.8 ± 4.6 % inhib
- Primary screen AVE (% inhib) ± SD (5-HT6): 21.9 ± 15.6 % inhib
- Primary screen AVE (% inhib) ± SD (Alpha1A): 40.6 ± 10.5 % inhib
- Primary screen AVE (% inhib) ± SD (Aipha1D): -15.1 ± 19.8 % inhib
- Primary screen AVE (% inhib) ± SD (Alpha2A): 9.4 ± 4.6 % inhib
- Primary screen AVE (% inhib) ± SD (Alpha2C): 6.4 ± 7.5 % inhib
- Primary screen AVE (% inhib) ± SD (Beta1): 67.3 ± 49.1 % inhib
- Primary screen AVE (% inhib) ± SD (Beta2): 0.1 ± 10.6 % inhib
- Primary screen AVE (% inhib) ± SD (Beta3): 30.8 ± 22.8 % inhib
- Primary screen AVE (% inhib) ± SD (D3): 12.8 ± 12.8 % inhib
- Primary screen AVE (% inhib) ± SD (D4): 12.6 ± 4.9 % inhib
- Primary screen AVE (% inhib) ± SD (D5): 20.9 ± 9.5 % inhib
- Primary screen AVE (% inhib) ± SD (DOR): -1.0 ± 4.8 % inhib
- Primary screen AVE (% inhib) ± SD (H1): 35.8 ± 11.9 % inhib
- Primary screen AVE (% inhib) ± SD (H3): -12.5 ± 7.9 % inhib
- Primary screen AVE (% inhib) ± SD (H4): 8.2 ± 3.1 % inhib
- Primary screen AVE (% inhib) ± SD (KOR): 3.7 ± 4.1 % inhib
- Primary screen AVE (% inhib) ± SD (M1): 50.7 ± 26.1 % inhib
- Primary screen AVE (% inhib) ± SD (M2): 9.3 ± 19.3 % inhib
- Primary screen AVE (% inhib) ± SD (M4): -8.7 ± 9.5 % inhib
- Primary screen AVE (% inhib) ± SD (M5): 95.0 ± 7.4 % inhib
- Primary screen AVE (% inhib) ± SD (MOR): 40.6 ± 51.0 % inhib
- Primary screen AVE (% inhib) ± SD (NET): -56.8 ± 10.5 % inhib
- Ki (PBR): > 10 µM
- Primary screen AVE (% inhib) ± SD (PBR): -2.1 ± 5.3 % inhib
- Primary screen AVE (% inhib) ± SD (Sigma 1): 41.8 ± 11.9 % inhib
- Primary screen AVE (% inhib) ± SD (Sigma 2): 40.7 ± 5.8 % inhib
